According to patent publication US5656452A, “NF-ATp, ' a T lymphocyte DNA-binding protein” (President and Fellows of Harvard College, priority 1993, dated 1997):

Tests used:
[1] = tested on: NF-ATp dephosphorylation in Ar-5 T cell extracts; experiment: Dephosphorylation of NF-ATp (apparent molecular weight by SDS-PAGE, renaturation, EMSA) in extracts of drug-treated Ar-5 T cells; type: cell-based, murine; details: prior treatment of T cells for 10 minutes with 1 μM CsA or 100 nM FK506 before lysis
Experimental: To prepare hypotonic extracts, cells were harvested by centrifugation, washed with phosphate buffered saline and resuspended to 10^8 cells/ml in buffer containing 7.5 mM Tris (pH 7.6), 2 mM PMSF, 1 mM MgCl2, 0.5 mM DTT, 0.25 mM leupeptin, 0.1 mM EDTA and 1 mg/ml aprotinin. The cells were lysed by quick-freezing in dry ice and rapid thawing in a room-temperaturewater bath, followed by centrifugation at 12,000 x g for 10 minutes. Where indicated, cells were treated before harvesting with 1 μM CsA (Sandoz Corp.) or 100 nM FK506 (Fujisawa Pharmaceutical) for 10 minutes at 37° C.
Hypotonic or nuclear extracts were boiled in SDS-PAGE sample buffer (65 mM Tris, pH 6.8, 2% SDS, 2% 2-mercaptoethanol, 10% glycerol, 0.01 mg/ml bromphenol blue) and fractionated on 3 mm thick SDS-polyacrylamide gels by standard methods (Laemmli, U. K. (1970) Nature 227, 680-685). Molecular weight standards (BioRad Laboratories) were also run on the same gel. After electrophoresis, the standards were cut off and separately stained. For recovery of proteins from the gels, slices (1 cm×0.5 cm) from wet, unfixed gels were crushed and eluted overnight in 50 mM Tris, pH 7.9, 1 mM DTT, 0.2 mM EDTA, 0.1 mM PMSF, 0.1 mg/ml BSA, 2.5% glycerol and 0.1% SDS (Baeuerle, P., and Baltimore, D. (1988) Cell 53, 211-217). […]

[2] = tested on: Ar-5 T cells (NF-AT induction, IL-2 gene expression); experiment: Induction of NF-AT and IL-2 gene expression in activated Ar-5 T cells; type: cell-based, murine; details: Ar-5 cells activated through T cell antigen receptor/CD3
Experimental: For preparation of nuclear extracts from activated T cells, cells were incubated for two hours with cross-linked anti-CD3ε monoclonal antibody (145-2C11, Kubo, R. T., Born, W., Kappler, J. W., Marrack, P., and Pigeon, M. (1989) J. Immunol. 142, 2736-2742) in the presence or absence of 1 μM CsA. Activation conditions and preparation of nuclear extracts was exactly as previously described (McCaffrey, P. G., Jain, J., Jamieson, C., Sen, R., and Rao, A. (1992) J. Biol. Chem. 267, 1864-1871). Protein determinations were done by the method of Bradford (Bradford, M. (1976) Anal. Biochem. 72,248-254), using bovine serum albumin as a standard.
To characterize the preexisting, DNA-binding component of NF-AT, we have used the murine IL-2 dependent T cell clone Ar-5. Activation of Ar-5 cells with monoclonal antibodies to the T cell antigen receptor or its associated CD3 complex causes the rapid appearance in the nucleus of several inducible transcription factor including NF-AT, which is followed by expression of the IL-2 gene and cell proliferation (Jamieson, C., McCaffrey, P. G., Rao, A., and Sen, R. (1991) J. Immunol. 147,416-420). […] We have previously established that unactivated Ar-5 cells contain a protein or proteins, extracted under hypotonic lysis conditions, that can bind in the EMSA to an oligonucleotide comprising the distal NF-AT sequence from the murine IL-2 promoter. […]

## C=CC[C@@H]1/C=C(\C)C[C@H](C)C[C@H](OC)[C@H]2O[C@@](O)(C(=O)C(=O)N3CCCC[C@H]3C(=O)O[C@H](/C(C)=C/[C@@H]3CC[C@@H](O)[C@H](OC)C3)[C@H](C)[C@@H](O)CC1=O)[C@H](C)C[C@@H]2OC [FK506]
[1]
  Dephosphorylation of NF-ATp in cell extracts: inhibited
[2]
  Induction of NF-AT and subsequent IL-2 gene expression: completely blocked
